Assay results from patent US20240269139A1, “COMPOUNDS FOR TARGETED PROTEIN DEGRADATION OF KINASES” (DANA-FARBER CANCER INSTITUTE, INC., priority 2020, published 2024).
Read-outs that look alike come from different tables or passages of the source.

How the values were obtained:
[1] = molecular target: protein kinases (human kinome) (Homo sapiens, UniProt P42684); format: cell-based
[2] = molecular target: protein kinases (human kinome) (Homo sapiens, UniProt Q9H0K1); format: cell-based; conditions: experiment wp195
protein kinases (human kinome) (Homo sapiens, UniProt Q9H0K1), sequence (Q9H0K1 whole entry): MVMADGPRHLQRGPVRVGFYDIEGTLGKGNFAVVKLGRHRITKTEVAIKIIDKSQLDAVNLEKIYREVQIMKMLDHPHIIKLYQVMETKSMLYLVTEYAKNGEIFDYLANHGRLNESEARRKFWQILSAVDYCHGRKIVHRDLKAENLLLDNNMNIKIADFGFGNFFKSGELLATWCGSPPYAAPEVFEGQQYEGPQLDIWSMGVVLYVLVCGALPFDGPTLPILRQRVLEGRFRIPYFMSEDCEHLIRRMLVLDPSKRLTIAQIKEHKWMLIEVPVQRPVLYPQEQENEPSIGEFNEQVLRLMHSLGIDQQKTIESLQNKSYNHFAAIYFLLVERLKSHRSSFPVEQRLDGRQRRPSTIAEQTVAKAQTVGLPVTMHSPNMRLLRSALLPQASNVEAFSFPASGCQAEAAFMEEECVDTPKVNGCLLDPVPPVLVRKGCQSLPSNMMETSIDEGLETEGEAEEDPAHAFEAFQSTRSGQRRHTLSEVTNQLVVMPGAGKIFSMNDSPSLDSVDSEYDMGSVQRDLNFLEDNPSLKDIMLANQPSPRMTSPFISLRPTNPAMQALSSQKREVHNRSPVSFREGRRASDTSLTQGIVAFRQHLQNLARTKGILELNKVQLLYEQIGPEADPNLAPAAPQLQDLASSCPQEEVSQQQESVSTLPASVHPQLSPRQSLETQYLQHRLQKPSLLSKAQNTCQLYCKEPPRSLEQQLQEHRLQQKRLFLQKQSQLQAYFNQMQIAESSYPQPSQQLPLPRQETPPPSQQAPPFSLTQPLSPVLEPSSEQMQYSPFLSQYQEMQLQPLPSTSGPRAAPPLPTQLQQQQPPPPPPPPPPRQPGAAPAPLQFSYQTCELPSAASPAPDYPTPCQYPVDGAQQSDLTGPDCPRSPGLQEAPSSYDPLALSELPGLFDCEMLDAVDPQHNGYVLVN

[3] = molecular target: protein kinases (human kinome) (Homo sapiens, UniProt P29597); format: cell-based; conditions: experiment wp195
protein kinases (human kinome) (Homo sapiens, UniProt P29597), sequence (P29597 whole entry): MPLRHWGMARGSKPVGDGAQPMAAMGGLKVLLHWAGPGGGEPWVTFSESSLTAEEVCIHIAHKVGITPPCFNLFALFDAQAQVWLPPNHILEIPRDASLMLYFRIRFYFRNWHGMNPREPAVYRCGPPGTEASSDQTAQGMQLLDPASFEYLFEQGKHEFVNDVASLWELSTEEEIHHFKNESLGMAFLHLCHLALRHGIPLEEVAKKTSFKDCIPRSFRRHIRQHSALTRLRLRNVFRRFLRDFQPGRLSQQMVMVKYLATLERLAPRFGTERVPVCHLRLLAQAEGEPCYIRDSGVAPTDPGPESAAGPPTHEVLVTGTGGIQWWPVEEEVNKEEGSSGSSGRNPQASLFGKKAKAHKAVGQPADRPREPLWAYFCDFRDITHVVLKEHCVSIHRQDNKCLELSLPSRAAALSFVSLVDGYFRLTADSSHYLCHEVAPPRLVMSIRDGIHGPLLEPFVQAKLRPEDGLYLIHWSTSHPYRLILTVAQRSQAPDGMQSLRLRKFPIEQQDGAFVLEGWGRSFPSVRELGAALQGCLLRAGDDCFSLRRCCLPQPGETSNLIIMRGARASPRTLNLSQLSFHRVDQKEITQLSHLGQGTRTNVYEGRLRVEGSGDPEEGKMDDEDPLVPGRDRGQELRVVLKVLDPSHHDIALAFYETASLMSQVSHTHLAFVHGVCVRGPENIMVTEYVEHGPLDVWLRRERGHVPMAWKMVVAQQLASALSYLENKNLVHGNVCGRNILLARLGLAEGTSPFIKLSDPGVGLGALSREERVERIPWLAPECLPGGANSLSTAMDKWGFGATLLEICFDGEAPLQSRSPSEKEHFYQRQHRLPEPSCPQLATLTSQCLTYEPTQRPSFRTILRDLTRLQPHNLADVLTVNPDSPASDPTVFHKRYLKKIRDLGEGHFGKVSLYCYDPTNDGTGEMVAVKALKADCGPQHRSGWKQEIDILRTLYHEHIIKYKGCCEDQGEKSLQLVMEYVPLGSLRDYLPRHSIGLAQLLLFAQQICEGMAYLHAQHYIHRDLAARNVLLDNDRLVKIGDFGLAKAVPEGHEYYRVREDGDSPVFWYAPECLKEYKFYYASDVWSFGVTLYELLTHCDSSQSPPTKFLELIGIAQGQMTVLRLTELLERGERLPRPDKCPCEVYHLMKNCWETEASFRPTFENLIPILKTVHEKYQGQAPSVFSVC

[4] = molecular target: T1, protein kinases (human kinome) (Homo sapiens, UniProt P29323); format: cell-based
T1 sequence (P29323 19-1055): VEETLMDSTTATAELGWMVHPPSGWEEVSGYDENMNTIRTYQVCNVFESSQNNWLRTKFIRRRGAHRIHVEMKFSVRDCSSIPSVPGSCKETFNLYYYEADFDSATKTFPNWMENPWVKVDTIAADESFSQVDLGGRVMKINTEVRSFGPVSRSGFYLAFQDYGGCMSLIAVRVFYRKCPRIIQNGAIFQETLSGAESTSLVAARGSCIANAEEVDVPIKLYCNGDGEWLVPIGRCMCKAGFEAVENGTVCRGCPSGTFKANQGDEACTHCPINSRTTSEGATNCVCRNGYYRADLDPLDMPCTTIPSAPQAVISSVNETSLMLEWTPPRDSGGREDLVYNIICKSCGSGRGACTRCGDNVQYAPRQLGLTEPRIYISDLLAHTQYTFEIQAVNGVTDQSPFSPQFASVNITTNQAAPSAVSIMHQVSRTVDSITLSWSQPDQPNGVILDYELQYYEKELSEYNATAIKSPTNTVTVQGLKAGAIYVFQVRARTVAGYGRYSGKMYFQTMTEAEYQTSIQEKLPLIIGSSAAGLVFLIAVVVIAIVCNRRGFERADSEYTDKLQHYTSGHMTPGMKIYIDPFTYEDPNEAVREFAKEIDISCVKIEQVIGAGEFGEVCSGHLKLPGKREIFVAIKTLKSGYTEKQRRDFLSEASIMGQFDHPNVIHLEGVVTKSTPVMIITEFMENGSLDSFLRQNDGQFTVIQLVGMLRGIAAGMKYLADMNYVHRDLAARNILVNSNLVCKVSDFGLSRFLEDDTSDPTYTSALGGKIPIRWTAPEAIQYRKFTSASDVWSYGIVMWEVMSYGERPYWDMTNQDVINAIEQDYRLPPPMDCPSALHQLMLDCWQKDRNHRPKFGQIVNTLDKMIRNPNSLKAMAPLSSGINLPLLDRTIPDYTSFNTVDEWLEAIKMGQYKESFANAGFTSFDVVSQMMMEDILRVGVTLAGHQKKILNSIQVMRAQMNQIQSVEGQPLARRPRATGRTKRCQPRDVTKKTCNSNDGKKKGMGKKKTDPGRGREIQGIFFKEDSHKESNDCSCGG

[5] = molecular target: protein kinases in MOLT-4 cells (Homo sapiens, UniProt O14965); test: Whole cell quantitative proteomics in MOLT-4 cells; conditions: MOLT-4, 1 μM, 5 h; validated by immunoblotting
Procedure: (§1) Whole cell multiplexed quantitative proteomics was employed to measure changes in abundance of the proteome in response to treatment with each of the kinase degrader molecules relative to DMSO (Table 1, Appendix I).
(§2) Cells were treated with DMSO (biological triplicate) or degrader at indicated dose and time and cells were harvested by centrifugation. […] Precipitated protein was resuspended in 4 M Urea, 50 mM HEPES pH 7.4, followed by dilution to 1 M urea with the addition of 200 mM EPPS, pH 8. Proteins were first digested with LysC (1:50: enzyme:protein) for 12 hours at room temperature. The LysC digestion was diluted to 0.5 M Urea with 200 mM EPPS pH 8 followed by digestion with trypsin (1:50; enzyme:protein) for 6 hours at 37° C. Tandem mass tag (TMT) reagents (Thermo Fisher Scientific) were dissolved in anhydrous acetonitrile (ACN) according to manufacturer's instructions. […] The 10, 11, or 16-plex labeling reactions were performed for 1.5 hours at room temperature and the reaction quenched by the addition of hydroxylamine to a final concentration of 0.3% for 15 minutes at room temperature. The sample channels were combined at a 1:1 ratio, desalted using C18 solid phase extraction cartridges (Waters®) and analyzed by LC-MS for channel ratio comparison. Samples were then combined using the adjusted volumes determined in the channel ratio analysis and dried down in a speed vacuum. The combined sample was then resuspended in 1% formic acid, and acidified (pH 2-3) before being subjected to desalting with C18 SPE (Sep-Pak®, Waters®). Samples were then offline fractionated into 96 fractions by high pH reverse-phase HPLC (Agilent® LC1260) through an aeris peptide xb-c18 column (Phenomenex®) with mobile phase A containing 5% acetonitrile and 10 mM NH4HCO3 in LC-MS grade H2O, and mobile phase B containing 90% acetonitrile and 10 mM NH4HCO3 in LC-MS grade H2O (both pH 8.0). The 96 resulting fractions were then pooled in a non-continuous manner into 24 fractions and desalted using C18 solid phase extraction plates (SOLA®, Thermo Fisher Scientific) followed by subsequent mass spectrometry analysis.
(§3) Data were collected using an Orbitrap Fusion™ Lumos™ mass spectrometer (Thermo Fisher Scientific, San Jose, CA, USA) coupled with a Proxeon EASY-nLC™ 1200 LC pump (Thermo Fisher Scientific) or an Orbitrap Eclipse™ Tribrid™ mass spectrometer (Thermo Fisher Scientific, San Jose, CA, USA) coupled with an UltiMate™ 3000 RSLCnano System. Peptides were separated on an EasySpray™ ES803a/ES803a.rev2 75 μm inner diameter microcapillary column (ThermoFisher Scientific).
(§4) Data dependent MS2 spectra were acquired in the ion trap with a normalized collision energy (NCE) set at 35%, AGC target set to 1.8×10^4 and a maximum injection time of 120 ms. MS3 scans were acquired in the Orbitrap with HCD collision energy set to 55%. AGC target set to 2×10^5, maximum injection time of 150 ms, resolution at 50,000 and with a maximum synchronous precursor selection (SPS) precursors set to 10.
(§5) Proteome Discoverer™ 2.1, 2.2 or 2.4 (Thermo Fisher Scientific) was used for .RAW file processing and controlling peptide and protein level false discovery rates, assembling proteins from peptides, and protein quantification from peptides.

MM1.S cells = test: CellTiter-Glo viability assay; format: cell-based, H. sapiens; conditions: MM.1S multiple myeloma cell line, 72 hours
Procedure: MM1.S (purchased from ATCC) was seeded in a 96-well microplate at 10,000 cells per […] well in RPMI-1(40 media supplemented with 10% FBS and incubated with compounds (final DMSO concentration at 0.1%). Relative cell viability was measured 72 hours after drug addition using CellTiter-Glo® (Promega) according to the manufacturer's protocol. Each analysis was performed in biological triplicate.

[6] = test system: protein kinases (human kinome); format: cell-based; conditions: for kinases the bifunctional compound degrades: as stated for the structure in the embodiments; for Kinase hits: kinases significantly downregulated vs DMSO (fold change cutoff −1.25, P-value<0.01), ≤8 h, 0.1-5 μM degrader, 7 cell lines; for Total no. kinase hits: number of degraded kinases per library compound
[7] = test system: protein kinases in MOLT-4 cells; test: Whole cell quantitative proteomics in MOLT-4 cells; conditions: MOLT-4, 1 μM, 5 h
Procedure: as §1, §2, §3, §4, §5

[8] = molecular target: protein kinases in MOLT-4 cells (Homo sapiens, UniProt P41240); test: Whole cell quantitative proteomics in MOLT-4 cells; conditions: compared with the library; MOLT-4, 1 μM, 5 h
Procedure: as §1, §2, §3, §4, §5

[9] = molecular target: extended human kinome (kinase-like proteins) (Homo sapiens, UniProt Q16875); test: Whole cell quantitative proteomics: extended kinome hits; conditions: Accession Q16875; experiment wp068
[10] = molecular target: protein kinases (human kinome) (Homo sapiens, UniProt P48736); format: cell-based
protein kinases (human kinome) (Homo sapiens, UniProt P48736), sequence (P48736 whole entry): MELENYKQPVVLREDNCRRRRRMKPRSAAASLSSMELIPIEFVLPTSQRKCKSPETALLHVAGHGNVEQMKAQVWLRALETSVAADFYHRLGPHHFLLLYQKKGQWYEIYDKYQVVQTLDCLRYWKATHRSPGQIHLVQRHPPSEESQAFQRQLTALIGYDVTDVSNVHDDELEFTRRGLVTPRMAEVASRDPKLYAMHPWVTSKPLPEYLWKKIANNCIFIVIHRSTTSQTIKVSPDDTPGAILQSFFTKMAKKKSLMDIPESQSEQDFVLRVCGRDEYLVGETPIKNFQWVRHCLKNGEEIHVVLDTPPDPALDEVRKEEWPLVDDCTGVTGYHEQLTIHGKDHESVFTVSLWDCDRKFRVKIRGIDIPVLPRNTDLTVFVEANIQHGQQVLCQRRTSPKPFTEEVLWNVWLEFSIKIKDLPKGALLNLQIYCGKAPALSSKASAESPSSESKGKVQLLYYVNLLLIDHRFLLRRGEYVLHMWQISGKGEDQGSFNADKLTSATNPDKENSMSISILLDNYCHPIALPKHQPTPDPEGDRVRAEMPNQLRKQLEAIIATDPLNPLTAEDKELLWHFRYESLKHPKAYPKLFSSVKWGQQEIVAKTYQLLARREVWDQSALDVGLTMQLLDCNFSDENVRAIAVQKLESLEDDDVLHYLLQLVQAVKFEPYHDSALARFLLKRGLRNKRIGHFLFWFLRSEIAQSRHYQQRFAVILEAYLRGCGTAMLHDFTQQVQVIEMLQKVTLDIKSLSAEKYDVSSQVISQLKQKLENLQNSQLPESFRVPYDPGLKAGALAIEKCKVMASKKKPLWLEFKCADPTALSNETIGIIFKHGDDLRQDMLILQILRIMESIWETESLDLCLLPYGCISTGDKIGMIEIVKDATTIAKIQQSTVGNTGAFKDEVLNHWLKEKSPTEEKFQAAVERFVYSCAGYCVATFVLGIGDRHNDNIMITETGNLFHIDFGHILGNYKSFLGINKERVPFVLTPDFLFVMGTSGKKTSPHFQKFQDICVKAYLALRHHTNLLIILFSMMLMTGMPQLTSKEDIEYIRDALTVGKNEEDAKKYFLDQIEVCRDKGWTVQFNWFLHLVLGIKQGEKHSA

[11] = molecular target: protein kinases (human kinome) (Homo sapiens, UniProt Q96BR1); format: cell-based
[12] = molecular target: T2, protein kinases (human kinome) (Homo sapiens, UniProt Q9UQ88); format: cell-based
T2 sequence (Q9UQ88 1-783): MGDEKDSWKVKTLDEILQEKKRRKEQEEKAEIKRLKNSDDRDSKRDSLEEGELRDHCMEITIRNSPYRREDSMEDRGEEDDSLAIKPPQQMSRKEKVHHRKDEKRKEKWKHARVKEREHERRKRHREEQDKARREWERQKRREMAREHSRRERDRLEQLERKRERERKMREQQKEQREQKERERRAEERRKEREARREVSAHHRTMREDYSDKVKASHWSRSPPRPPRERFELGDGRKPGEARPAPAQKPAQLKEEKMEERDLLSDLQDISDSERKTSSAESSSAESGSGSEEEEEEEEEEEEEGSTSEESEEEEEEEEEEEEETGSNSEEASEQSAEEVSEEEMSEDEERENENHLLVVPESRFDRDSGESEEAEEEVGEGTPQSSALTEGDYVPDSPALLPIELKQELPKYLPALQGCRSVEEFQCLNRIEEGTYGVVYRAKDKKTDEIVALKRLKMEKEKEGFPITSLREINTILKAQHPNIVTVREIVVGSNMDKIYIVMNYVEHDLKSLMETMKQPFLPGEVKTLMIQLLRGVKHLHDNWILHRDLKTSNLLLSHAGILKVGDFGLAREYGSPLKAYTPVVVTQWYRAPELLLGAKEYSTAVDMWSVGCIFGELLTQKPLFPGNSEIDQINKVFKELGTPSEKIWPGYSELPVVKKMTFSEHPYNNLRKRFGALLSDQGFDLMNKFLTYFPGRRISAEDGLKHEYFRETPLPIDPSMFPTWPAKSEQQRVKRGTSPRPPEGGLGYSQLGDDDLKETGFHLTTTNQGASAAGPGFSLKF

[13] = molecular target: protein kinases (human kinome) (Homo sapiens, UniProt P49840); format: cell-based; conditions: GSK3A P49840; experiment wp068
protein kinases (human kinome) (Homo sapiens, UniProt P49840), sequence (P49840 whole entry): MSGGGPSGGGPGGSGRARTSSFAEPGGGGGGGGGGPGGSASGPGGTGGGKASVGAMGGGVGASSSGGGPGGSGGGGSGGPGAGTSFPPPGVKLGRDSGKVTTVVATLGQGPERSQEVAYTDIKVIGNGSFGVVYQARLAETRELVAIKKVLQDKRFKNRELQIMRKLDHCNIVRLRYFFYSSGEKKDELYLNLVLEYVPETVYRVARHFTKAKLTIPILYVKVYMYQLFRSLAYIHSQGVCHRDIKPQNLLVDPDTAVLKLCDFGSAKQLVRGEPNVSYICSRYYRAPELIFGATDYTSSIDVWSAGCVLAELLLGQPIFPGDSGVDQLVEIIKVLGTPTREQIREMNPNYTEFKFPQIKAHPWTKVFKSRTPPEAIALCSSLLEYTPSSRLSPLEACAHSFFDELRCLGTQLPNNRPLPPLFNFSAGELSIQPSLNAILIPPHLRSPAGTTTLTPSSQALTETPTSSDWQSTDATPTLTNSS

[14] = Experiment wp068, direction of change down
[15] = CLK1 P49759-3, experiment wp068

protein kinases (human kinome) (Homo sapiens, UniProt P42684), sequence (P42684 whole entry): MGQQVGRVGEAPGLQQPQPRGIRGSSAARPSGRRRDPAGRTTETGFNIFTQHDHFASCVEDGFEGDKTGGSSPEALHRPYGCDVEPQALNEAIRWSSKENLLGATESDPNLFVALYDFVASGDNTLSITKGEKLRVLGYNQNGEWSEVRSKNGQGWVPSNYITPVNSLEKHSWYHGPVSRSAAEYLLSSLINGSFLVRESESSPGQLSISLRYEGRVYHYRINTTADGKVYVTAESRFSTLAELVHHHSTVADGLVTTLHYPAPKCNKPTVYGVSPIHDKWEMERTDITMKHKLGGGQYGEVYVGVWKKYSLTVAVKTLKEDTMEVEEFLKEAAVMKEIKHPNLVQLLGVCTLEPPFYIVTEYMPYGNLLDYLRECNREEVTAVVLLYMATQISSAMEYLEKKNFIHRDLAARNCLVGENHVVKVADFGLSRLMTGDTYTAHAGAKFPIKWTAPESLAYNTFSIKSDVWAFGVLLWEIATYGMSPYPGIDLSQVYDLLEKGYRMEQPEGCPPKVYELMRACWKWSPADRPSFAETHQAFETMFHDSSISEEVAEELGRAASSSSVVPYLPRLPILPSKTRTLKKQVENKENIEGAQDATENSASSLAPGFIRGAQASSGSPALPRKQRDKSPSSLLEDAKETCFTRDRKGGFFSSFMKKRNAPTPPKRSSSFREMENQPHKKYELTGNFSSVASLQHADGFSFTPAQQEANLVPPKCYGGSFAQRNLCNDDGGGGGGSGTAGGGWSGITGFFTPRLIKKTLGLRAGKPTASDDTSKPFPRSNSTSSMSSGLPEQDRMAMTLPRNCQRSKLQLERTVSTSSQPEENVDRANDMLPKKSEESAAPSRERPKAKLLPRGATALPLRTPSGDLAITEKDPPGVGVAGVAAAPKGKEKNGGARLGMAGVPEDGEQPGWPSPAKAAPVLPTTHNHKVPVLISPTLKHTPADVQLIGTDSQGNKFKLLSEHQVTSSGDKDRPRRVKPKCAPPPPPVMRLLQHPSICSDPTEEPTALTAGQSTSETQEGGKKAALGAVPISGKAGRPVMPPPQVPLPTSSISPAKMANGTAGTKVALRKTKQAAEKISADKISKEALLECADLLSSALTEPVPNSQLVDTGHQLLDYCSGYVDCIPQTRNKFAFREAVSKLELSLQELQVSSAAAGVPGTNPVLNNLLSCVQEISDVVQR

## Cc1ncsc1-c1ccc([C@H](C)NC(=O)[C@@H]2C[C@@H](O)CN2C(=O)[C@@H](NC(=O)CCCCCCc2ccc(Nc3ncc4c(n3)-c3ccccc3NC(=O)N4)cc2)C(C)(C)C)cc1 [JWG.148]
[1]; ABL2 (P42684) protein abundance, degrader vs DMSO, down
  logFC: −0.516
[1]; Experiment wp195
  logFC ABL2 (P42684): −0.516
[2]; Accession Q9H0K1
  logFC of SIK2: −0.455
[2]; direction of change down
  logFC SIK2 (Q9H0K1): −0.455
[3]; direction of change down
  logFC TYK2 (P29597): −0.5187
[3]; protein TYK2 (P29597), down
  logFC TYK2: −0.5187
[4]; EPHB2 (P29323), experiment wp195
  logFC: −0.3596
[4]; Experiment wp195
  logFC of EPHB2 (P29323): −0.3596

## COc1cc(Nc2ncc3c(n2)-c2ccc(Cl)cc2C(c2c(F)cccc2OC)=NC3)ccc1C(=O)NCCCOCCOCCOCCCNC(=O)COc1cccc2c1C(=O)N(C1CCC(=O)NC1=O)C2=O (stereo not drawn) [dAURK-4, -((9-chloro-7-(2-fluoro-6-methoxyphenyl)-5H-benzo[c]pyrimido[4,5-e]azepin-2-yl)amino)-N-(1-((2-(2,6-dioxopiperidin-3-yl)-1,3-dioxoisoindolin-4-yl)oxy)-2-oxo-7,10,13-trioxa-3-2174 azahexadecan-16-yl)-2-methoxybenzamide]
[5]
  degradation of AURKA: potent and selective degradation
MM1.S cells
  antiproliferative effects: superior antiproliferative effects over parental inhibitor alisertib
[6]
  kinases the bifunctional compound degrades: AURKA and AURKB
  Kinase hits: AURKA, AURKB
  Total no. kinase hits: 2

## Cc1nc(Nc2ncc(C(=O)Nc3c(C)cccc3Cl)s2)cc(N2CCN(CC(=O)NCCCCNC(=O)COc3cccc4c3C(=O)N(C3CCC(=O)NC3=O)C4=O)CC2)n1 (stereo not drawn) [DB-3-291, N-(2-chloro-6-methylphenyl)-2-((6-(4-(2-((4-(2-((2-(2,6-dioxopiperidin-3-yl)-1,3-dioxoisoindolin-4-yl)oxy)acetamido)butyl)amino)-2-oxoethyl)piperazin-1-yl)-2-methylpyrimidin-4-yl)amino)thiazole-5-carboxamide]
[7]
  selectivity among CSK degraders: greatest selectivity
[8]
  degradation of CSK: strongest degradation of CSK
[6]
  kinases the bifunctional compound degrades: ABL2, BLK, CSK, and WEE1
  Kinase hits: ABL2, BLK, CSK, WEE1
  Total no. kinase hits: 4

## O=C1CCC(N2C(=O)c3cccc(NCCOCCOCCOCCOCCC(=O)Nc4cccc(CN5CCC(NC(=O)c6[nH]ncc6NC(=O)c6c(Cl)cccc6Cl)CC5)c4)c3C2=O)C(=O)N1 (stereo not drawn) [FMF.04.147.1]
[9]
  logFC PFKFB3: −0.4462
[10]; [14]
  logFC PIK3CG (P48736): −0.3581
[10]; PIK3CG (P48736), experiment wp068
  logFC: −0.3581
[11]; [14]
  logFC SGK3 (Q96BR1-1): −0.3389
[11]; SGK3 (Q96BR1-1), experiment wp068
  logFC: −0.3389
[6]; Accession P49841-2, experiment wp068, direction down
  logFC GSK3B: −0.6218
[6]; CDK9 (P50750-2) protein abundance, degrader vs DMSO, down
  logFC: −0.9142
[6]; [15]
  logFC: −0.6462
  logFC CLK1: −0.6462
[6]; Experiment wp068
  logFC CDK9 (P50750-2): −0.9142
[6]; GSK3B P49841-2, experiment wp068
  logFC GSK3B: −0.6218
[12]; CDK11A (Q9UQ88-1), experiment wp068
  logFC: −0.7386
[12]; Experiment wp068
  logFC of CDK11A (Q9UQ88-1): −0.7386
[13]
  logFC: −0.5346
  logFC GSK3A: −0.5346
